Patent US8283291B2, “Herbicidal composition” (Kumiai Chemical Industry Co., Ltd., priority 2006, dated 2012)

Columns and labels:
Experiment in all cases: Test on herbicidal effects against weeds and phytotoxicity by foliage treatment in upland field
Settings in all cases: 25 gai/ha, 21st day
[1] = system: shattercane (SORVU); assay type: in vivo, Sorghum vulgare
Method: (§1) In a plastic pot of 11 cm in length×11 cm in width×11 cm in depth, the upland soil was filled, and seeds of corn (ZEAMX), soybean (GLXMA), greenfoxtail (SETVI), shattercane (SORVU), redroot pigweed (AMARE), Ipomoea lacunosa L. (IPOLA) and velvetleaf (ABUTH) were sown and covered with soil.
(§2) Then, cultivation was carried out in a greenhouse for 10 days. Then, a wettable powder prepared in accordance with Formulation Example 1 was weighed so that active ingredients would be the prescribed amounts, diluted with water and uniformly applied on the soil surface by means of a small size spray at a rate of 500 liter per 1 hectare. Thereafter, cultivation was carried out in a greenhouse, and on the 21st day after the treatment, the herbicidal effects and phytotoxicity were examined in accordance with the standards as identified in Table 15.

[2] = system: redroot pigweed (AMARE); assay type: in vivo, Amaranthus retroflexus L.
Method: as §1, §2

[3] = system: greenfoxtail (SETVI); assay type: in vivo, Setaria viridis
Method: as §1, §2

[4] = system: velvetleaf (ABUTH); assay type: in vivo, Abutilon theophrasti
Method: as §1, §2

[5] = system: Ipomoea lacunosa L. (IPOLA); assay type: in vivo
Method: as §1, §2

[6] = system: soybean (GLXMA); assay type: in vivo
Method: as §1
as §2, with “diluted with water and uniformly applied on the soil surface by means of a small size” left out

[7] = system: corn (ZEAMX); assay type: in vivo
Method: as §1
as §2, with “diluted with water and uniformly applied on the soil surface by means of a small size” left out

## COCc1cccc(C(O)c2nc(OC)cc(OC)n2)c1NS(=O)(=O)C(F)F (stereo not shown) [Pyrimisulfan]
[1]
  herbicidal effect SORVU: 8 (Herbicidal effect or phytotoxicity of at least 80% and less than 90%)
[2]
  herbicidal effect AMARE: 10 (Herbicidal effect or phytotoxicity of 100%)
[3]
  herbicidal effect SETVI: 6 (Herbicidal effect or phytotoxicity of at least 60% and less than 70%)
[4]
  herbicidal effect ABUTH: 10 (Herbicidal effect or phytotoxicity of 100%)
[5]
  herbicidal effect IPOLA: 9 (Herbicidal effect or phytotoxicity of at least 90% and less than 100%)
[6]
  phytotoxicity GLXMA: 2 (Herbicidal effect or phytotoxicity of at least 20% and less than 30%)
[7]
  phytotoxicity ZEAMX: 2 (Herbicidal effect or phytotoxicity of at least 20% and less than 30%)
